Patent US20230406847A1, “LIGANDS OF PROSTATE SPECIFIC MEMBRANE ANTIGEN (PSMA) CONTAINING HETEROAROMATIC LINKER BUILDING BLOCKS” (ABX ADVANCED B[…] GMBH, priority 2020, published 2023)

tested on: human PSMA+ LNCaP cells; experiment: Internalization of radiolabelled compounds in LNCaP cells; type: cell-based; conditions: 0.75 h, 0.03 µM
Experimental: Gallium labeling was carried out using 90 μL HEPES in water (580 mg/mL; ultrapure-grade, Merck, Darmstadt, Germany) mixed with 40 μL of [^68Ga]GaCl3. The pH of the mixture was adjusted to 3.8 to 4.1 with NaOH (30%; ultrapure-grade, Merck, Darmstadt, Germany). Subsequently 1.0 nmol of a synthesized compound of Example 3 to 10 was added and incubated at 98 ° C. for 10 to 15 minutes. For the competitive cell assay, the precursor amount was diminished to 0.5 nmol.
Lutetium labelling was carried out using 115 μL of sodium acetate buffer (400 mM, pH mixed with 10 to 20 MBq [177Lu]LuCl3. Subsequently, 1.0 nmol of a synthesized compound of Example 3 to 10 was added and incubated at 98 ° C. for 20 to 25 minutes.
Cell binding studies were performed using human PSMA+ LNCaP cells (ATCC CRL-1740) cultured in RPMI 1640 medium supplemented with 10% fetal bovine serum (Sera plus, PAN Biotech) and 2 mmol/l stable glutamine (PAN Biotech). Cells were grown at 37° C. in an incubator with humidified air and 5% CO2. Trypsin/EDTA 0.5%/0.02% in PBS (PAN Biotech) was used to harvest cells.
1×10^5 LNCaP cells were seeded in poly-L-lysine coated 24-well-plates for 24 h at 37° C. humidified air with 5% CO2. After removing the medium, cells were incubated with radiolabelled compounds of Example 11 (30 nM) for 45 minutes at 37° C. and at 4° C. respectively. For determination of specific cell uptake, cells were blocked with PMPA (Tocris) at a concentration of 500 μM. The cells were washed three times with 1 ml ice-cold PBS, twice with 500 μl glycine-HCl (50mM; pH 2.8) for 5 min at rt to remove the surface-bound radioactivity and with 1 ml ice-cold PBS. Subsequent the cells were lysed with 0.5 ml 0.3M NaOH. The internalized and the surface-bound fractions were measured in a gammacounter.

| SMILES | internalisation rate (%) |
| --- | --- |
| O=C(O)CC[C@H](NC(=O)N[C@@H](CCCCNC(=O)[C@H](Cc1ccc2ccccc2c1)NC(=O)[C@H]1CC[C@H](CNC(=O)CN2CCN(CC(=O)O)CCN(CC(=O)O)CCN(CC(=O)O)CC2)CC1)C(=O)O)C(=O)O [PSMA-617, (3S,10S,14S)-3-[(naphthalen-2-yl)methyl]-1,4,12-trioxo-1-[(1R,4S)-4-[[2-[4,7,10-tris(carboxymethyl)-1,4,7,10-etraazacyclododecan-1-yl]acetamido]methyl]cyclo-hexyl]-2,5,11 ,13-tetraazahexadecane-10,14,16-tricarboxylic acid, reference compound] | 31.1 |

same assay, conditions: radiolabelled compounds (30 nM), 45 minutes, 37° C. and 4° C., LNCaP cells, specific uptake by blocking with PMPA 500 μM

| SMILES | internalisation rate (%) |
| --- | --- |
| Cc1nc(CNC(=O)CN2CCN(CC(=O)O)CCN(CC(=O)O)CCN(CC(=O)O)CC2)sc1C(=O)N[C@@H](Cc1ccc2ccccc2c1)C(=O)NCCCC[C@H](NC(=O)N[C@@H](CCC(=O)O)C(=O)O)C(=O)O [Example ABX271] | 37.8 |
| O=C(O)CC[C@H](NC(=O)N[C@@H](CCCCNC(=O)[C@H](Cc1ccc2ccccc2c1)NC(=O)c1ccc(CNC(=O)CN2CCN(CC(=O)O)CCN(CC(=O)O)CCN(CC(=O)O)CC2)s1)C(=O)O)C(=O)O [Example ABX272] | 41.4 |
| O=C(O)CC[C@H](NC(=O)N[C@@H](CCCCNC(=O)[C@H](Cc1ccc2ccccc2c1)NC(=O)c1cc(CNC(=O)CN2CCN(CC(=O)O)CCN(CC(=O)O)CCN(CC(=O)O)CC2)on1)C(=O)O)C(=O)O [Example ABX288] | 33.2 |
| O=C(O)CC[C@H](NC(=O)N[C@@H](CCCCNC(=O)[C@H](Cc1ccc2ccccc2c1)NC(=O)c1ccc(CNC(=O)CN2CCN(CC(=O)O)CCN(CC(=O)O)CCN(CC(=O)O)CC2)nc1)C(=O)O)C(=O)O [Example ABX289] | 55.7 |
| O=C(O)CC[C@H](NC(=O)N[C@@H](CCCCNC(=O)[C@H](Cc1csc2ccccc12)NC(=O)c1cc(CNC(=O)CN2CCN(CC(=O)O)CCN(CC(=O)O)CCN(CC(=O)O)CC2)on1)C(=O)O)C(=O)O [Example ABX338] | 40.8 |
| O=C(O)CC[C@H](NC(=O)N[C@@H](CCCCNC(=O)[C@H](Cc1ccc2ccccc2c1)NC(=O)c1cc(CNC(=O)[C@H](CCCCNc2ccc([N+](=O)[O-])cc2[N+](=O)[O-])NC(=O)CN2CCN(CC(=O)O)CCN(CC(=O)O)CCN(CC(=O)O)CC2)on1)C(=O)O)C(=O)O [Example ABX339] | 60.6 |
| O=C(O)CC[C@H](NC(=O)N[C@@H](CCCCNC(=O)[C@H](Cc1csc2ccccc12)NC(=O)c1cc(CNC(=O)[C@H](CCCCNc2ccc([N+](=O)[O-])cc2[N+](=O)[O-])NC(=O)CN2CCN(CC(=O)O)CCN(CC(=O)O)CCN(CC(=O)O)CC2)on1)C(=O)O)C(=O)O [Example ABX341] | 61.3 |
| O=C(O)CC[C@H](NC(=O)N[C@@H](CCCCNC(=O)[C@H](Cc1csc2ccccc12)NC(=O)c1cc(CNC(=O)[C@H](CCCCNC(=O)c2ccc(I)cc2)NC(=O)CN2CCN(CC(=O)O)CCN(CC(=O)O)CCN(CC(=O)O)CC2)on1)C(=O)O)C(=O)O [Example ABX346] | 46.7 |
